In patent publication US11498928B2, “Macrocyclic spiroethers as Mcl-1 inhibitors” (ASCENTAGE PHARMA (SUZHOU) CO., LTD., priority 2019, dated 2022):

Experiments:
[1] = system: OPM-2 cells; assay: Cell viability assay (OPM-2 cells), CCK-8; type: cell-based; details: Homo sapiens, OPM-2, 24 h, 5% FBS
How it was run: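 Viability read by CCK-8 absorbance (450 nm, 4 h reagent incubation) after 24 h compound exposure of 20000 OPM-2 cells per well at 37 °C. IC50 fitted by nonlinear regression on vehicle-normalized signal.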

[2] = system: NCI-H929 cells; assay: Cell viability assay (NCI-H929 cells), CCK-8; type: cell-based; details: Homo sapiens, NCI-H929, 24 h, 5% FBS
How it was run: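 Viability of NCI-H929 cells was measured using the Cell Counting Kit-8. After 24 hrs of compound exposure, 10 μL of CCK-8 solution per well was incubated for 1-4 hours, and absorbance was read at 450 nm on a BioTek Synergy 1MF. Readings were normalized to vehicle (DMSO) cells, and IC50 values were derived by nonlinear regression in GraphPad Prism 6.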

[3] = molecular target: T1, Mcl-1 protein (residues 171-323) (Homo sapiens, UniProt Q07820); assay: Inhibition of Mcl-1 by fluorescence polarization (FP) competitive binding assay with FAM-Bid tracer; details: 2 nM FAM-Bid, 20 nM Mcl-1, 30 min
T1 construct: Tag-free Mcl-1 protein (residues 171-323) was used in the FP assay
How it was run: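 Ten-point compound titrations compete against 2 nM fluorescein-Bid for 20 nM Mcl-1 (171-323, untagged). Incubation 30 min RT in PBS buffer with BGG and Triton, 5% DMSO final. mP reduction fitted by sigmoidal nonlinear regression for IC50.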

T1 sequence (Q07820 171-323): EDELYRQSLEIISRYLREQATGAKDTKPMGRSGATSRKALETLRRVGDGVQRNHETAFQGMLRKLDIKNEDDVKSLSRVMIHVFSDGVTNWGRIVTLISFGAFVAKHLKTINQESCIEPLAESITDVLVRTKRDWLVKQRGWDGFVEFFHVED

| IC50 [2] [nM] | IC50 [3] [nM] | Compound | IC50 [1] [nM] |
| --- | --- | --- | --- |
| 18 | 19 | COCCN[C@H]1C2=C[C@@H](C2)[C@H](C)[C@@H](C)S(=O)(=O)NC(=O)c2ccc3c(c2)N(C[C@@H]2CC[C@H]21)C[C@@]1(CCCc2c1ccc(Cl)c2F)CO3 [compound 58, (1S,11′R,12′S,13′R,16′R,16a′R,18a′R)-6-chloro-5-fluoro-16′-((2-methoxyethyl)amino)-11′,12′-dimethyl-3,4,12′,13′,16′,16a′,17′,18′,18a′,19′-decahydro-1′H,2H,3′H, 11′H-spiro[naphthalene-1,2′-[5,7]etheno[13,15]methanocyclobuta[i][1,4]oxazepino[3,4-f][1]thia[2,7]diazacyclohexadecin]-8′(9′H)-one 10′,10′-dioxide] | 57 |
| 4.1 | 13 | C[C@@H]1[C@@H](C)S(=O)(=O)NC(=O)c2ccc3c(c2)N(C[C@@H]2CC[C@H]2[C@@H](OCCN2CCOCC2)C2=C[C@H]1C2)C[C@@]1(CCCc2c1ccc(Cl)c2F)CO3 [compound 59, (1S,11′R,12′S,13′R,16′R,16a′R,18a′R,E)-6-chloro-5-fluoro-11′,12′-dimethyl-16′-(2-morpholinoethoxy)-3,4,12′,13′,16′,16a′,17′,18′,18a′,19′-decahydro-1′H,2H,3′H,11′H-spiro[naphthalene-1,2′-[5,7]etheno[13,15]methanocyclobuta[i][1,4]oxazepino[3,4-f][1]thia[2,7]diazacyclohexadecin]-8′(9′H)-one 10′,10′-dioxide] | 37 |
| 19 | 15 | COCCO[C@H]1C2=C[C@@H](C2)[C@H](C)[C@@H](C)S(=O)(=O)NC(=O)c2ccc3c(c2)N(C[C@@H]2CC[C@H]21)C[C@@]1(CCCc2c1ccc(Cl)c2F)CO3 [compound 60, (1S,11′R,12′S,13′R,16′R,16a′R,18a′R,E)-6-chloro-5-fluoro-16′-(2-methoxyethoxy)-11′,12′-dimethyl-3,4,12′,13′,16′,16a′,17′,18′,18a′,19′-decahydro-1′H,2H,3′H,11′H-spiro[naphthalene-1,2′-[5,7]etheno[13,15]methanocyclobuta[i][1,4]oxazepino[3,4-f][1]thia[2,7]diazacyclohexadecin]-8′(9′H)-one 10′,10′-dioxide] | 66 |
| 28 | 10 | C[C@@H]1[C@@H](C)S(=O)(=O)NC(=O)c2ccc3c(c2)N(C[C@@H]2CC[C@H]2[C@@H](OCCS(C)(=O)=O)C2=C[C@H]1C2)C[C@@]1(CCCc2c1ccc(Cl)c2F)CO3 [compound 61, (1S,11′R,12′S,13′R,16′R,16a′R,18a′R,E)-6-chloro-5-fluoro-11′,12′-dimethyl-16′-(2-(methylsulfonyl)ethoxy)-3,4,12′,13′,16′,16a′,17′,18′,18a′,19′-decahydro-1′H,2H,3′H,11′H-spiro[naphthalene-1,2′-[5,7]etheno[13,15]methanocyclobuta[i][1,4]oxazepino[3,4-f][1]thia[2,7]diazacyclohexadecin]-8′(9′H)-one 10′,10′-dioxide] | 75 |
| 9.3 | 8.1 | C[C@@H]1[C@@H](C)S(=O)(=O)NC(=O)c2ccc3c(c2)N(C[C@@H]2CC[C@H]2[C@@H](OCc2ncccn2)C2=C[C@H]1C2)C[C@@]1(CCCc2c1ccc(Cl)c2F)CO3 [compound 62, (1S,11′R,12′S,13′R,16′R,16a′R,18a′R,E)-6-chloro-5-fluoro-11′,12′-dimethyl-16′-(pyrimidin-2-ylmethoxy)-3,4,12′,13′,16′,16a′,17′,18′,18a′,19′-decahydro-1′H,2H,3′H,11′H-spiro[naphthalene-1,2′-[5,7]etheno[13,15]methanocyclobuta[i][1,4]oxazepino[3,4-f][1]thia[2,7]diazacyclohexadecin]-8′(9′H)-one 10′,10′-dioxide] | 59 |
| 98 | 13 | C[C@@H]1[C@@H](C)S(=O)(=O)NC(=O)c2ccc3c(c2)N(C[C@@H]2CC[C@H]2[C@@H](OCc2nccn2C)C2=C[C@H]1C2)C[C@@]1(CCCc2c1ccc(Cl)c2F)CO3 [compound 63, (1S,11′R,12′S,13′R,16′R,16a′R,18a′R,E)-6-chloro-5-fluoro-11′,12′-dimethyl-16′-((1-methyl-1H-imidazol-2-yl)methoxy)-3,4,12′,13′,16′,16a′,17′,18′,18a′,19′-decahydro-1′H,2H,3′H, 11′H-spiro[naphthalene-1,2′-[5,7]etheno[13,15]methanocyclobuta[i][1,4]oxazepino[3,4-f][1]thia[2,7]diazacyclohexadecin]-8′(9′H)-one 10′,10′-dioxide] | 88 |
| 9.4 | 14 | C[C@@H]1[C@@H](C)S(=O)(=O)NC(=O)c2ccc3c(c2)N(C[C@@H]2CC[C@H]2[C@@H](OCC(=O)N(C)C)C2=C[C@H]1C2)C[C@@]1(CCCc2c1ccc(Cl)c2F)CO3 [compound 64, 2-(((1 S, 11′R,12′S,13′R,16′R,16a′R,18a′R,E)-6-chloro-5-fluoro-11′,12′-dimethyl-10′,10′-dioxido-8′-oxo-3,4,8′,9′,12′,13′,16′,16a′,17′,18′,18a′,19′-dodecahydro-1′H,2H,3′H, 11′H-spiro[naphthalene-1,2′-[5,7]etheno[13,15]methanocyclobuta[i][1,4]oxazepino[3,4-f][1]thia[2,7]diazacyclohexadecin]-16′-yl)oxy)-N,N-dimethylacetamide] | 120 |
| 210 | 15 | C[C@@H]1[C@@H](C)S(=O)(=O)NC(=O)c2ccc3c(c2)N(C[C@@H]2CC[C@H]2[C@@H](OCCN2CCNCC2)C2=C[C@H]1C2)C[C@@]1(CCCc2c1ccc(Cl)c2F)CO3 [compound 65, (1S,11′R,12′S,13′R,16′R,16a′R,18a′R,E)-6-chloro-5-fluoro-11′,12′-dimethyl-16′-(2-(piperazin-1-yl)ethoxy)-3,4,12′,13′,16′,16a′,17′,18′,18a′,19′-decahydro-1′H,2H,3′H, 11′H-spiro[naphthalene-1,2′-[5,7]etheno[13,15]methanocyclobuta[i][1,4]oxazepino[3,4-f][1]thia[2,7]diazacyclohexadecin]-8′(9′H)-one 10′,10′-dioxide] | 247 |
| 7.7 | 15 | C[C@@H]1[C@@H](C)S(=O)(=O)NC(=O)c2ccc3c(c2)N(C[C@@H]2CC[C@H]2[C@@H](OCCN2CCCC2)C2=C[C@H]1C2)C[C@@]1(CCCc2c1ccc(Cl)c2F)CO3 [compound 66, (1S,11′R,12′S,13′R,16′R,16a′R,18a′R,E)-6-chloro-5-fluoro-11′,12′-dimethyl-16′-(2-(pyrrolidin-1-yl)ethoxy)-3,4,12′,13′,16′,16a′,17′,18′,18a′,19′-decahydro-1′H,2H,3′H,11′H-spiro[naphthalene-1,2′-[5,7]etheno[13,15]methanocyclobuta[i][1,4]oxazepino[3,4-f][1]thia[2,7]diazacyclohexadecin]-8′(9′H)-one 10′,10′-dioxide] | 31 |
| 97 | 15 | C[C@@H]1[C@@H](C)S(=O)(=O)NC(=O)c2ccc3c(c2)N(C[C@@H]2CC[C@H]2[C@@H](OCC(=O)N2CCOCC2)C2=C[C@H]1C2)C[C@@]1(CCCc2c1ccc(Cl)c2F)CO3 [compound 67, (1S,11′R,12′S,13′R,16′R,16a′R,18a′R,E)-6-chloro-5-fluoro-11′,12′-dimethyl-16′-(2-morpholino-2-oxoethoxy)-3,4,12′,13′,16′,16a′,17′,18′,18a′,19′-decahydro-1′H,2H,3′H, 11′H-spiro[naphthalene-1,2′-[5,7]etheno[13,15]methanocyclobuta[i][1,4]oxazepino[3,4-f][1]thia[2,7]diazacyclohexadecin]-8′(9′H)-one 10′,10′-dioxide] | 77 |
| 43 | 15 | C[C@@H]1[C@@H](C)S(=O)(=O)NC(=O)c2ccc3c(c2)N(C[C@@H]2CC[C@H]2[C@@H](OCC(=O)N2CCCC2)C2=C[C@H]1C2)C[C@@]1(CCCc2c1ccc(Cl)c2F)CO3 [compound 68, (1S,11′R,12′S,13′R,16′R,16a′R,18a′R,E)-6-chloro-5-fluoro-11′,12′-dimethyl-16′-(2-oxo-2-(pyrrolidin-1-yl)ethoxy)-3,4,12′,13′,16′,16a′,17′,18′,18a′,19′-decahydro-1′H,2H,3′H, 11′H-spiro[naphthalene-1,2′-[5,7]etheno[13,15]methanocyclobuta[i][1,4]oxazepino[3,4-f][1]thia[2,7]diazacyclohexadecin]-8′(9′H)-one 10′,10′-dioxide] | 47 |
| 69 | 14 | C[C@@H]1[C@@H](C)S(=O)(=O)NC(=O)c2ccc3c(c2)N(C[C@@H]2CC[C@H]2[C@@H](OCC(=O)N2CCCCC2)C2=C[C@H]1C2)C[C@@]1(CCCc2c1ccc(Cl)c2F)CO3 [compound 69, (1S,11′R,12′S,13′R,16′R,16a′R,18a′R,E)-6-chloro-5-fluoro-11′,12′-dimethyl-16′-(2-oxo-2-(piperidin-1-yl)ethoxy)-3,4,12′,13′,16′,16a′,17′,18′,18a′,19′-decahydro-1′H,2H,3′H,11′H-spiro[naphthalene-1,2′-[5,7]etheno[13,15]methanocyclobuta[i][1,4]oxazepino[3,4-f][1]thia[2,7]diazacyclohexadecin]-8′(9′H)-one 10′,10′-dioxide] | 40 |
